Results on 19 compounds are retold here after patent US20260258083A1, “T Cell Engager Masking Molecules” (AMGEN INC., priority 2023, published 2026).

A short description of series [1]: Mouse pharmacokinetic study, IV (Example 2). The settings on record: BL/6, mouse, plasma, iv, 1 mg/kg.
Protocol: Example 2: Mouse Pharmacokinetic Study to Evaluate In Vivo PK
The 4-arm 20 kDa PepPOL conjugate was dosed by IV administration to BL/6 mice at 0.82 or 8.2 mg/kg dose levels. […] The PK profiles for each peptide were evaluated by quantifying plasma concentrations of total intact peptide material over time (see methods).
The test system of series [2] is FLT3×CD3 TCE (SEQ ID NO: 93). Briefly: Association kinetics by KinExA (Table 5). It counts as binding. The settings on record: for koff: KinExA, FLT3×CD3 TCE; for fold-koff / fold-kon: relative to the parent CD3ε epitope peptide. The protocol:
(§1) • 1. Preparation of NHS-activated sepharose fast-flow beads: • 2. Fast flow sepharose suspension in 100% IPA, washed twice with milliQ H20, mild centrifugation to pool beads in between wash steps. • 3. Equilibrated in 0.15 M NaBO3, pH=8.5 buffer • 4. Added 80 mM PDEA to activate the resin for thiol exchange, 10 mins, r.t. • 5. Equilibrated resin with Hepes Buffered Saline-P (0.01 M HEPES pH 7.4, 0.15 M NaCl, 0.005% v/v Surfactant P2), pH 7.4 binding buffer • 6. Added 30 μg/mL of binding peptide, […] (SEQ ID NO; 297) or pGlu-[…] (SEQ ID NO: 300), reaction for 1 hr to functionalize resin. • 7. Quench with 10 mM L-Cys for 1 hour. • 8. Constant Binding Partner was FLT3×CD3 TCE (SEQ ID NO: 93), MW 105720, 3.2 mg/mL 31.21 uM was diluted to 333 pM and the pGlu-[…] peptide or pGlu-[…]-PEG (Pep-PEG v2) were titrated from 1 uM or 400 nM down to 2.3 pM concentrations relative to effective peptide molarity.
Association Kinetics by KinExA
Background: Kinetic exclusion samples the free partner from a solution-phase mixture.

The target of series [3] is FLT3×CD3 TCE (SEQ ID NO: 93). Briefly: Equilibrium binding affinity measurement by KinExA (Table 5). The settings on record: for Kd: KinExA, FLT3×CD3 TCE as constant binding partner; for fold-Kd: affinity gain relative to the parent CD3ε epitope peptide. The protocol:
Equilibrium Binding Affinity Measurement by KinExA
as §1

The test system of series [4] is anti-CD3ε paratope of a CD3ε binding domain of a TCE. Briefly: Affinity class of the binding peptide of the masking molecule. An excerpt:
The exact value may vary with the respective TCE. However, the […]

Series [5] has as its system CDH3×MSLN dual targeting TCE with two CD3e binders (SEQ ID NO 255). Briefly: TDCC assay, inhibition of cytotoxicity (Example 15). Format: cell-based. The settings on record: same peptide concentration; PBMC E:T 10:1, 48 or 72 hours. As for the experimental part:
Example 15: TCE Masking Molecule Inhibition of Cytotoxicity and Cytokine Release of Representative CDH3×MSLN Dual Targeting TCE with Two CD3e Binders (SEQ ID NO 255)
In vitro potency of CD3e pepPEG was indirectly assessed by measuring in vitro activity of T cell engager (TCE) using T cell dependent cellular cytotoxicity (TDCC) assay. Either 100 pM or 300 pM of TCE was mixed with increasing concentrations of CD3e pepPEG before the mixture is treated to cells. Peripheral blood mononuclear cells (PBMCs) as effector cells were co-cultured with tumor target cells at an effector cell-to-target cell ratio of 10:1 in the presence of mixture of TCE and CD3e pepPEG for 48 hours or 72 hours at 37° C. Cytotoxicity of TCE was assessed by Steady-Glo (Promega) for luciferase-tagged target cells and CellTiter-Glo (Promega) for non-luciferase-tagged target cells after plates were washed to eliminate T cells. Specific cytotoxicity curves and EC50 values were derived using Prism 7.04 (GraphPad). Cytokine production was assessed in supernatants from TDCC assays using electro-chemiluminescence assays (MesoScale Discovery).

Series [6] relates to STEAP1×CD3e heterodimeric TCE. Briefly: T cell dependent cellular cytotoxicity (TDCC) assay, inhibition of TCE cytotoxicity. The settings on record: STEAP1×CD3, CLDN6×CD3 and DLL3×CD3 TCE; PBMC E:T 10:1, 48 hours. Format: cell-based. As for the experimental part:
Example 12: In Vitro Cytotoxicity and Cytokine Release Inhibition by Binding Peptides
In vitro potency of CD3e pepPEG was indirectly assessed by measuring in vitro activity of T cell engager (TCE) using T cell dependent cellular cytotoxicity (TDCC) assay. […] Cytokine production was assessed in supernatants from TDCC assays using electro-chemiluminescence assays (MesoScale Discovery).

Series [7] has as its system CDH3-CD3-MSLN-CD3 TCE (SEQ ID NO 255). Briefly: SPR assay of immobilized peptides binding with TCE. The settings on record: bivalent analyte model. The protocol: (§2) Example 14: SPR Assay of Immobilized Peptides Binding with TCE
(§3) A cytiva CM5 chip was first functionalized with PDEA (2-(2pyridinyldithio)ethaneamine) under standard ((1-ethyl-3-(3-dimethylaminopropyl)carbodiimide)/(N-hydroxysuccinimide) EDC/NHS coupling conditions where the PDEA is dissolved to 20 mM and 1 M NaCl in 0.1 M sodium acetate pH 4.3. Binding peptides were dissolved to 50- or 100-ug/mL respectively in PBST, pH 6.5, and coupling times were optimized to yield the desired surface density.
Background: Surface plasmon resonance follows binding to a sensor surface in real time, without labels.

Series [8] deals with CLDN6xCD3 TCE SEQ ID NO 340. Briefly: SPR assay of immobilized peptides binding with TCE. As to conditions: immobilized peptide, Kinetic 1:1 Binding. The protocol:
as §2, §3

Series [9] relates to DLL3xCD3 TCE SEQ ID NO 104. Briefly: SPR assay of immobilized peptides binding with TCE. The settings on record: immobilized peptide, Kinetic 1:1 Binding. The protocol: as §2, §3
In series [10] the test system is FLT3xCD3 TCE SEQ ID NO 93. Briefly: SPR assay of immobilized peptides binding with TCE. The settings on record: immobilized peptide, Kinetic 1:1 Binding. As for the experimental part: as §2, §3
Sequence of FLT3xCD3 TCE SEQ ID NO 93 (as listed by the source): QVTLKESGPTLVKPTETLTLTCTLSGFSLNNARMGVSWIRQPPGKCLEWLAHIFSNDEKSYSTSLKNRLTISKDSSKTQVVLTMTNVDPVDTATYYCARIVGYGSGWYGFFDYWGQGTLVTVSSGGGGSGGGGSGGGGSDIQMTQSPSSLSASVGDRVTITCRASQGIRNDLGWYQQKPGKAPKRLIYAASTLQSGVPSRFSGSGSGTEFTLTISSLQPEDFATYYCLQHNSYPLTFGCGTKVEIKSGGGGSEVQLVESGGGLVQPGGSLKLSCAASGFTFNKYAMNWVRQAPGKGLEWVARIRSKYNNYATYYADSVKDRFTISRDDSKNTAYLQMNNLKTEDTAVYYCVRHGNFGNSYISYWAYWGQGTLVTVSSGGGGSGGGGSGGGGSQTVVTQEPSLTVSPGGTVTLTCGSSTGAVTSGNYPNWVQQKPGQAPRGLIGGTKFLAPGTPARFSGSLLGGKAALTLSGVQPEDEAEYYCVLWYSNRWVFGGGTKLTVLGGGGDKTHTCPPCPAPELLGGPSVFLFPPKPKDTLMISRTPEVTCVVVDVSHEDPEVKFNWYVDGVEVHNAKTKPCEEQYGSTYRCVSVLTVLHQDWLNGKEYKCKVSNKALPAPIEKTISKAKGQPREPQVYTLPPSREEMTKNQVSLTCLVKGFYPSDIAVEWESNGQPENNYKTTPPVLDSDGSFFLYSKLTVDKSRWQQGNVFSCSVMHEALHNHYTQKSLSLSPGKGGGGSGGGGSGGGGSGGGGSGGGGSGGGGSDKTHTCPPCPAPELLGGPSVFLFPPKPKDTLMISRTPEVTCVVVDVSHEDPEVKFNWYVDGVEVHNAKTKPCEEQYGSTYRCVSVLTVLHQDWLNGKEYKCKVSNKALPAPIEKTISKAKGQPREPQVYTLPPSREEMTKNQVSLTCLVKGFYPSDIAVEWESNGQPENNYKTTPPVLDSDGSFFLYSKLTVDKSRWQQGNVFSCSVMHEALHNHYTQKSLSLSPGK
Series [11] has as its system Steap 1xCD3 TCE SEQ ID NO 373 + 374 + 375. Briefly: SPR assay of immobilized peptides binding with TCE. The settings on record: immobilized peptide, Kinetic 1:1 Binding. As for the experimental part: as §2, §3
[12] abbreviates: masking molecules tested with respect to TCE of SEQ ID NO 255 (Table 20).
The mark [13] stands for this setting: masking molecules of Example 12.

Where a SMILES comes first, the peptide text is derived from it. Where no end group is shown, it is not given here. Side-chain parts run from the residue outwards. [ ]: non-standard residue; d: D form. maleimide = maleimide-thiosuccinimide linker; pGlu = O=C1CC[C@@H](C(=O)O)N1; P(Dap) = not defined here; PEG = not defined here

Sequence of CDH3×MSLN dual targeting TCE with two CD3e binders (SEQ ID NO 255) (as listed by the source): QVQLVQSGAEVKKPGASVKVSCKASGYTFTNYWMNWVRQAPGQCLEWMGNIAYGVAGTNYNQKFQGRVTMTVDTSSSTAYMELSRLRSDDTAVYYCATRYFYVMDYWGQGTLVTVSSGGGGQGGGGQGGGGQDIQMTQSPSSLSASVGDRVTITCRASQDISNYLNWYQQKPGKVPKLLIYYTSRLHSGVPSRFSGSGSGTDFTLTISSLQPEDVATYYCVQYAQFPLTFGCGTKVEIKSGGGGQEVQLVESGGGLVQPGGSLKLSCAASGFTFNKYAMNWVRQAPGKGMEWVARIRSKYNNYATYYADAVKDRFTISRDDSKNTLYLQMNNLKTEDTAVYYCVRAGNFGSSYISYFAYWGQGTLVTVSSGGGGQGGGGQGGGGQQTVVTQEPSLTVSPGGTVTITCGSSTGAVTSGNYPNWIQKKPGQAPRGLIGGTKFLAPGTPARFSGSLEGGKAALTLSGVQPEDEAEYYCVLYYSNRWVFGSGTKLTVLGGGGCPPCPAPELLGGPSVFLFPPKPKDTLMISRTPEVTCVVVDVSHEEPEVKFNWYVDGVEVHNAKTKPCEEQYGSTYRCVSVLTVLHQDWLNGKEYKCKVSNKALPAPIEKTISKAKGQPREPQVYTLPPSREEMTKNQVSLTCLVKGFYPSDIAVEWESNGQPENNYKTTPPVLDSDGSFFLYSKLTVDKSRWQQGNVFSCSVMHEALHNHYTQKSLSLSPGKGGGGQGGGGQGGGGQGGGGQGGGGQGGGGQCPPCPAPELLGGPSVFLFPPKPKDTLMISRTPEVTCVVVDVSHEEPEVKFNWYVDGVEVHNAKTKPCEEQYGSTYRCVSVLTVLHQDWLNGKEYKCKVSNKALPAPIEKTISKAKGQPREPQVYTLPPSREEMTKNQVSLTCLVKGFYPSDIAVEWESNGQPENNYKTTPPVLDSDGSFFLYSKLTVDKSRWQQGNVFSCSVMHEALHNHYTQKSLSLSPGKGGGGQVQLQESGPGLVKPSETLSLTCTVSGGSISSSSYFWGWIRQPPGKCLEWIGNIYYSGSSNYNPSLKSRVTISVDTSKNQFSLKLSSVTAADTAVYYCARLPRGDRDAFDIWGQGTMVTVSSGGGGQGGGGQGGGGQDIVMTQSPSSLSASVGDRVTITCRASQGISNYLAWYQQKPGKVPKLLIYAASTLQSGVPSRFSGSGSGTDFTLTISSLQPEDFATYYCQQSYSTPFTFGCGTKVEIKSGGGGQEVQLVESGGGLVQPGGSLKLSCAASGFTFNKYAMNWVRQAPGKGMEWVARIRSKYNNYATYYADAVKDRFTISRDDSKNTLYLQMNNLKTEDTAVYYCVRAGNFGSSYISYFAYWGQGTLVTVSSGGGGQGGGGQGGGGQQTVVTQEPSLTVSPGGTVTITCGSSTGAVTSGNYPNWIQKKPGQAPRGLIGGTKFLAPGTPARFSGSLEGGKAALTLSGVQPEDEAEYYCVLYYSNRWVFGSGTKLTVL
Sequence of CLDN6xCD3 TCE SEQ ID NO 340 (as listed by the source): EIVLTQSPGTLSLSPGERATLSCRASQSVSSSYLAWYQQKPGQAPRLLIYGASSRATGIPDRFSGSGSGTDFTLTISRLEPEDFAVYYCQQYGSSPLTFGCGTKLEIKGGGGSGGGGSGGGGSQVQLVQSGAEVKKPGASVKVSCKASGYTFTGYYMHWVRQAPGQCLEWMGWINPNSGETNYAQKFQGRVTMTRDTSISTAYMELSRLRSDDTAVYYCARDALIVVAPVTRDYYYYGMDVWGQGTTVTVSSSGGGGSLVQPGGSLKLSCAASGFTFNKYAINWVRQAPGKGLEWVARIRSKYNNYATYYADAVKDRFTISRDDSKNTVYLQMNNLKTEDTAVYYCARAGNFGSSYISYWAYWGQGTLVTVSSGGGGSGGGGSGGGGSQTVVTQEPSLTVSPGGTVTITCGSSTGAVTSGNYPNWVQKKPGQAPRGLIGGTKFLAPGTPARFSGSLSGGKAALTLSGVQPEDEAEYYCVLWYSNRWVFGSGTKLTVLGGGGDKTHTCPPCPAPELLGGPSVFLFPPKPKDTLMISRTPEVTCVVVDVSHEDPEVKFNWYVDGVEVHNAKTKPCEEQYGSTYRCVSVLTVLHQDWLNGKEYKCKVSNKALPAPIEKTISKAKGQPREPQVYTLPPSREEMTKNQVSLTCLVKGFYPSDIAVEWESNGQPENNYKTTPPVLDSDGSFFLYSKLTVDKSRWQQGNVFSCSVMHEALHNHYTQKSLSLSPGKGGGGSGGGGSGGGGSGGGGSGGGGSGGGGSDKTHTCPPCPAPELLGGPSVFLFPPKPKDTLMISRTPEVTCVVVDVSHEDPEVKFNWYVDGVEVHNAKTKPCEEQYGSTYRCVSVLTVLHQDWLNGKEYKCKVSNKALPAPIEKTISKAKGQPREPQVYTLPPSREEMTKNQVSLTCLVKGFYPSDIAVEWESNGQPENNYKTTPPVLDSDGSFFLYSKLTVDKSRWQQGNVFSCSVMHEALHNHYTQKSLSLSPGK
Sequence of Steap 1xCD3 TCE SEQ ID NO 373 + 374 + 375 (as listed by the source): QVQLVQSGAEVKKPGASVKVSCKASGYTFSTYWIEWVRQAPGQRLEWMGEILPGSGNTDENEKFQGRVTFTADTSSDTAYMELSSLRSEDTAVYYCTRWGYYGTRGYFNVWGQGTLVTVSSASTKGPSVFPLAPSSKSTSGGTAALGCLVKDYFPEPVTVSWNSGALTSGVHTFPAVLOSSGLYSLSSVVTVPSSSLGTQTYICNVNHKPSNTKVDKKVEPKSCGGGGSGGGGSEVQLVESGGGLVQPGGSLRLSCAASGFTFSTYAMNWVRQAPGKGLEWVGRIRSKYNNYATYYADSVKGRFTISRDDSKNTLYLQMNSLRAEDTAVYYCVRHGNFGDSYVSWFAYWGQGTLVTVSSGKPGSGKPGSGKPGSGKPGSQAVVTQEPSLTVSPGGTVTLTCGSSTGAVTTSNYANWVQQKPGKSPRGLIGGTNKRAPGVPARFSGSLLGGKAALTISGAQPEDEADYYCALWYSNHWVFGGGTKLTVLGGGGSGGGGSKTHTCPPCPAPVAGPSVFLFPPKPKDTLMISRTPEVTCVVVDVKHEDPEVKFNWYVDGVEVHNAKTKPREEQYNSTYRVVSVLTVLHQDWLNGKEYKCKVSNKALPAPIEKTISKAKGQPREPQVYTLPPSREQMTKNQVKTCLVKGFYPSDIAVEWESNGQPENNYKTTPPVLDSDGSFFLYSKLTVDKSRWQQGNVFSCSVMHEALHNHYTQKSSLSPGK
Sequence of Steap 1xCD3 TCE SEQ ID NO 373 + 374 + 375 (as listed by the source partner): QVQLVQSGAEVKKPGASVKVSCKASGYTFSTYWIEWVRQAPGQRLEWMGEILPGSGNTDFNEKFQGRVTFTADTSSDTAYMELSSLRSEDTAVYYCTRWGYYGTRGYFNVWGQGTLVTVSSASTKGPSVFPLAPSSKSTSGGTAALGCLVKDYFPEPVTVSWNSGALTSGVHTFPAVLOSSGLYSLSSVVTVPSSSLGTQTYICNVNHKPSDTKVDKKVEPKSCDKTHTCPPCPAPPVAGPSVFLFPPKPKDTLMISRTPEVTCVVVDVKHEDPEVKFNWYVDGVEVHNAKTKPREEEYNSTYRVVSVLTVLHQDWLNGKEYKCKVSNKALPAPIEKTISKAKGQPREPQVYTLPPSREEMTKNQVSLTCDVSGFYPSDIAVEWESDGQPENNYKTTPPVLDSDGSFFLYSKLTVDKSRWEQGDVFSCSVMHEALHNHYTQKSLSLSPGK
Sequence of Steap 1xCD3 TCE SEQ ID NO 373 + 374 + 375 (as listed by the source partner): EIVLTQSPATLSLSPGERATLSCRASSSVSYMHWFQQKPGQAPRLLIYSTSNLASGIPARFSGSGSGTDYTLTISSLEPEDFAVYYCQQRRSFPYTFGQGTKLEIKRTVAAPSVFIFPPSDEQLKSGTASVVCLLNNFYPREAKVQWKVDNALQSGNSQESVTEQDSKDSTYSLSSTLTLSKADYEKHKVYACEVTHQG

Take `CSCC[C@H](NC(=O)CNC(=O)[C@H](CCCCN)NC(=O)CNC(=O)[C@H](CCSC)NC(=O)[C@H](CCC(=O)O)NC(=O)[C@H](CCC(=O)O)NC(=O)[C@H](CC(N)=O)NC(=O)CNC(=O)[C@H](CC(=O)O)NC(=O)[C@@H](N)CCC(N)=O)C(=O)N[C@@H](CCC(=O)O)C(=O)N[C@@H](CCC(=O)O)C(=O)N[C@@H](CC(N)=O)C(=O)NCC(=O)N[C@@H](CC(=O)O)C(=O)N[C@@H](CCC(N)=O)C(=O)O` (H-QDGNEEMGKGMEENGDQ-OH): in [1], the half-life fell in the range of 3 to 10 min.
Same read-out and setting: under `CSCC[C@H](NC(=O)CNC(=O)[C@H](CCCCN)NC(=O)CNC(=O)[C@H](CCSC)NC(=O)[C@H](CCC(=O)O)NC(=O)[C@H](CCC(=O)O)NC(=O)[C@H](CC(N)=O)NC(=O)CNC(=O)[C@H](CC(=O)O)NC(=O)[C@@H](N)CCC(N)=O)C(=O)N[C@@H](CCC(=O)O)C(=O)N[C@@H](CCC(=O)O)C(=O)N[C@@H](CC(N)=O)C(=O)NCC(=O)N[C@@H](CC(=O)O)C(=O)N[C@@H](CCC(N)=O)C(=O)N[C@@H](CS)C(=O)O` (H-QDGNEEMGKGMEENGDQC-OH; N-terminus and C-terminus assumed) stands 3 to 10 min.
Regarding (QDGNEEMG)3K, the “koff” value in [2] turned out to be 0.00016 s⁻¹.
Same read-out and setting: next, QDGNEEMG [reference compound]: 0.0248 s⁻¹.
Turning to “QDGNEEMG-K(Nϵ)-GMEENGDQ (chain 1 QDGNEEMGK; also: branched: chains joined through a Lys, chain 2 on Lys Nε, direction not given here)”, in series [3], binding was characterised by a dissociation constant (Kd) of 1.03 nM and the fold-Kd is recorded as 21.65. In addition, in [2], the “koff” value is 0.00447 s⁻¹, the fold-koff is given as 0.25 and the fold-kon stood at 5.38.
The like results for “QDGNEEMG-P(Dap)-GMEENGDQ (chain 1 QDGNEEMG-{P(Dap)}; reading uncertain; also: chains linked via Dap residue 'P(Dap)')” were, in that order, 1.1 nM, 32.55, 0.0075 s⁻¹, 0.30 and 6.36.
Turning to QDGNEEMGGMEENGDQ, in series [2], the off-rate constant (koff) came out at 0.00471 s⁻¹.
On the same count and under the same terms, next, QDGNEEMGK: 0.0179 s⁻¹; QDGNEEMGKQDGNEEMG: 0.00497 s⁻¹; QDGNEEMGQDGNEEMG: 0.00586 s⁻¹.
With “pE-DGEEELKGC (PEG)-NH2 [79676-1] ([pGlu]DGEEELKGC(PEG)-NH2; not fully specified; printed as pE-DGEEELKGC (PEG)-NH2; reading uncertain; also: PEG type and size not given here)”, the Affinity result in [4] (setting [12]) was “Intermediote”. For the same compound, the “inhibition of cytotoxicity, in vitro potency (FIG. 20)” value (“inhibition of cytotoxicity” for short) in [5] is “comparable results among each other”.
As to “pE-DGEEELKGC (PEG)-NH2 [79677-1] ([pGlu]DGEEELKGC([maleimide-4‑arm PEG 5 kDa])-NH2; also: 4-arm PEG conjugate, number of peptide copies not given here)”, the Affinity result in [4] (setting [12]) is “Intermediate (an affinity of about 10 to 150, preferably 10 to 100 mM is considered of “high” affinity)”. Further, the “inhibition of cytotoxicity” value in series [5] is recorded as “comparable results among each other”.
As for “pE-DGEEELKGK (PEG)-OH ([pGlu]DGEEELKGK(PEG 20 kDa)-OH; not fully specified) [79921-1]”, the Affinity result in [4] (setting [12]) is listed as “Intermediate (an affinity of about 10 to 150, preferably 10 to 100 mM is considered of “high” affinity)”.
Still for that read-out and setting: next, “pE-DGEEELKGK (mPEG)-OH ([pGlu]DGEEELKGK(mPEG)-OH; numbers in words are those of the source; also: Lys side chain linked via thioether to 20 kDa mPEG) [82138-1]”: “Intermediate (an affinity of about 10 to 150, preferably 10 to 100 mM is considered of “high” affinity)”.
As for “pE-DGNEELKGC (PEG)-NH2 [79674-1] ([pGlu]DGNEELKGC(PEG)-NH2; not fully specified; printed as pE-DGNEELKGC (PEG)-NH2; reading uncertain; also: PEG type and size not given here)”, the Affinity result was “High (an affinity indicated as Kd of about 0.05 to about 10 nM, typically 0.1 pM to 10 nM or 500 pM to 5 nM is considered of “high” affinity)” in series [4] (setting [13]) and “High (an affinity indicated as Kd of about 0.05 to about 10 nM, typically 0.1 pM to 10 nM or 500 pM to 5 nM is considered of “high” affinity)” in series [4] (setting [12]). Moreover, in series [6], the “inhibition activity against TCE cytotoxicity (FIG. 15)” value is “highest inhibition activity”.
Consider “pE-DGNEELKGC (PEG)-OH (N-terminal pyroglutamate, 20K PEG on Cys) [71203-2]”, for which the Affinity result in series [4] (setting [13]) is “High (an affinity indicated as Kd of about 0.05 to about 10 nM, typically 0.1 pM to 10 nM or 500 pM to 5 nM is considered of “high” affinity)”; in series [4] (setting [12]) it was “High (an affinity indicated as Kd of about 0.05 to about 10 nM, typically 0.1 pM to 10 nM or 500 pM to 5 nM is considered of “high” affinity)”.
In the case of “pE-DGNEELKGK (PEG)-OH ([pGlu]DGNEELKGK-OH; not fully specified (residue 10); printed as pE-DGNEELKGK (PEG)-OH) [73135-2]”, the Affinity result is “High (an affinity indicated as Kd of about 0.05 to about 10 nM, typically 0.1 pM to 10 nM or 500 pM to 5 nM is considered of “high” affinity)” in series [4] (setting [13]) and “High (an affinity indicated as Kd of about 0.05 to about 10 nM, typically 0.1 pM to 10 nM or 500 pM to 5 nM is considered of “high” affinity)” in series [4] (setting [12]).
On to “pE-DGNEELKGK (mPEG)-OH ([pGlu]DGNEELKGK([acetamide‑thioether-mPEG 20 kDa])-OH) [73136-2]”, for which the Affinity entry was “High (an affinity indicated as Kd of about 0.05 to about 10 nM, typically 0.1 pM to 10 nM or 500 pM to 5 nM is considered of “high” affinity)” in [4] (setting [13]) and “High (an affinity indicated as Kd of about 0.05 to about 10 nM, typically 0.1 pM to 10 nM or 500 pM to 5 nM is considered of “high” affinity)” in [4] (setting [12]). Further, the “inhibition of cytotoxicity” value in [5] is recorded as “comparable results among each other”.
Consider “pGlu-DGNEELKGC ([pGlu]DGNEELKGC; also: entry DGNEELKGC marks its position 1 as pyroglutamic acid)”, for which the “fast component for the off-rate” value in [7] turned out to be 0.0212 s⁻¹. The “fast component of the on-rate” value in [7] was 2.42e+06 M⁻¹ s⁻¹. Also, the “ka” value was 2.72e+06 M⁻¹ s⁻¹ in series [8], 2.14e+06 M⁻¹ s⁻¹ in series [9], 1.88e+06 M⁻¹ s⁻¹ in series [10] and 2e+06 M⁻¹ s⁻¹ in series [11]. Also, the “kd” value came to 0.0038 s⁻¹ in series [8], 0.00279 s⁻¹ in [9], 0.0024 s⁻¹ in series [10] and 0.00514 s⁻¹ in [11].

What is called half-life is how long it takes for the measured level to halve. A lower half-life goes with rapid decline. A word on the koff: it is the rate constant with which the complex falls apart. Read a high koff as fast dissociation. The term Kd denotes the equilibrium constant for the complex coming apart. Lower therefore signals tighter binding.
